# Measured values as given in the supplement of paper PMC10307832.
# How the values were obtained:
# Assay in all cases: relative viability (nuclei count vs DMSO), 5 days (fraction); higher = more cells survive
# Entinostat + Tozasertib = compound: Nc1ccccc1NC(=O)c1ccc(CNC(=O)OCc2cccnc2)cc1 [Entinostat] + Cc1cc(Nc2cc(N3CCN(C)CC3)nc(Sc3ccc(NC(=O)C4CC4)cc3)n2)n[nH]1 [Tozasertib] (partner 0.1 µM)
# Method in brief: (§1)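 Values are medians from duplicate plates. Each reflects relative viability, defined as the nuclei count of treated wells over that of vehicle wells. Lung cancer cell lines in 1536-well plates were pin-tool dosed one day after seeding with one drug alone or with a fixed anchor-drug dose plus five library-drug doses (not always all listed) in √10 steps, then fixed, stained and imaged at 4× after 5 days.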
# SGI-1776 + Lapatinib = compound: CN1CCC(CNc2ccc3ncc(-c4cccc(OC(F)(F)F)c4)n3n2)CC1 [SGI-1776] + CS(=O)(=O)CCNCc1ccc(-c2ccc3ncnc(Nc4ccc(OCc5cccc(F)c5)c(Cl)c4)c3c2)o1 [Lapatinib] (partner 2 µM)
# Method in brief: as §1
# Entinostat + Linsitinib = compound: Nc1ccccc1NC(=O)c1ccc(CNC(=O)OCc2cccnc2)cc1 [Entinostat] + C[C@]1(O)C[C@@H](c2nc(-c3ccc4ccc(-c5ccccc5)nc4c3)c3c(N)nccn32)C1 [Linsitinib] (partner 1 µM)
# Method in brief: as §1
# [1] = compound: C1COCCN1C2=NC(=NC3=C2OC4=C3C=CC=N4)C5=CC(=CC=C5)NC(=O)C6=CN=C(C=C6)N + C[C@@H](Oc1cc(-c2cnn(C3CCNCC3)c2)cnc1N)c1c(Cl)ccc(F)c1Cl [Crizotinib] (partner 1 µM)
# Method in brief: as §1
Cell Line,relative viability (Entinostat + Tozasertib; first compound 0.02 µM),relative viability (Entinostat + Tozasertib; first compound 0.06325 µM),relative viability (Entinostat + Tozasertib; first compound 0.2 µM),relative viability (Entinostat + Tozasertib; first compound 0.6325 µM),relative viability (Entinostat + Tozasertib; first compound 2 µM),relative viability (SGI-1776 + Lapatinib; first compound 0.08 µM),relative viability (SGI-1776 + Lapatinib; first compound 0.8 µM),relative viability (SGI-1776 + Lapatinib; first compound 2.53 µM),relative viability (SGI-1776 + Lapatinib; first compound 8 µM),relative viability (Entinostat + Linsitinib; first compound 0.02 µM),relative viability (Entinostat + Linsitinib; first compound 0.06325 µM),relative viability (Entinostat + Linsitinib; first compound 0.2 µM),relative viability (Entinostat + Linsitinib; first compound 0.6325 µM),relative viability (Entinostat + Linsitinib; first compound 2 µM),relative viability ([1]; first compound 0.02 µM),relative viability ([1]; first compound 0.06325 µM),relative viability ([1]; first compound 0.2 µM),relative viability ([1]; first compound 0.6325 µM),relative viability ([1]; first compound 2 µM)
NCI-H596,0.76,0.93,1.14,0.621,0.503,1.08,1.06,0.906,0.825,1.08,1.17,0.958,0.9,0.799,1.1,0.983,0.99,0.942,0.746
NCI-H647,0.32,0.214,0.228,0.0707,0.0371,1.17,0.915,1.01,0.601,1.23,1.14,0.932,0.327,0.121,1.16,1.17,0.943,1.09,0.283
NCI-H650,0.739,0.652,0.555,0.482,0.212,0.99,0.955,0.747,0.795,1.03,1.16,0.902,0.552,0.243,0.654,0.713,0.798,0.755,0.559
NCI-H661,0.339,0.332,0.282,0.334,0.396,0.509,0.533,0.646,0.439,0.481,0.769,0.678,0.725,0.624,1.16,1.27,0.971,1.12,0.932
NCI-H727,0.605,0.647,0.497,0.392,0.403,0.933,1.1,0.826,0.793,0.306,0.344,0.35,0.255,0.0975,0.908,0.962,0.739,0.725,0.505
NCI-H838,0.287,0.261,0.239,0.146,0.127,0.96,1.22,0.942,0.564,1.11,1.1,1.11,0.594,0.279,0.901,0.809,0.674,0.722,0.439
NCI-H1355,0.525,0.484,0.412,0.303,0.275,0.915,0.989,1.01,0.799,0.811,0.769,0.653,0.551,0.468,0.969,1.21,1.07,1.02,0.936
NCI-H1437,0.31,0.253,0.181,0.132,0.108,0.81,0.918,0.806,0.664,0.92,0.565,0.298,0.151,0.113,0.95,1.11,0.827,0.964,0.401
